Holding throughout (type): in vivo
One data set concerns Plutella xylostella. The experiment in a line: Activity against Plutella xylostella (diamond back moth), artificial diet, eggs. Conditions: 192 h, application rate 200 ppm, 8 days after infestation, read-out: effect in at least one of the two categories (mortality or growth inhibition). Here is the method:
Example B9: Activity Against Plutella xylostella (Diamond Back Moth)
24-well microtiter plates with artificial diet were treated with aqueous test solutions prepared from 10′000 ppm DMSO stock solutions by pipetting. After drying, Plutella eggs were pipetted through a plastic stencil onto a gel blotting paper and the plate was closed with it. The samples were assessed for mortality and growth inhibition in comparison to untreated samples 8 days after infestation.

Data set [1] concerns Myzus persicae. The experiment in a line: Activity against Myzus persicae (green peach aphid), systemic activity, pea seedlings. The settings on record: for mortality at 24 ppm: Myzus persicae. Here is the method: Example B5: Activity Against Myzus persicae (Green Peach Aphid) Systemic Activity
Roots of pea seedlings infested with an aphid population of mixed ages were placed directly in the aqueous test solutions prepared from 10′000 DMSO stock solutions. The samples were assessed for mortality 6 days after placing seedlings in test solutions.

For the next data set, the system named is Diabrotica balteata. Description: Activity against Diabrotica balteata (corn root worm), maize sprouts. Conditions: for percent effect (mortality or growth inhibition) at 200 ppm: 96 h, application rate 200 ppm, L2 larvae, 4 days after infestation, read-out: effect in at least one of the two categories (mortality or growth inhibition); for Mortality (%) / mortality at 50 ppm: concentration 50 ppm. Here is the method:
Example B3: Activity Against Diabrotica Balteata (Corn Root Worm)
Maize sprouts placed onto an agar layer in 24-well microtiter plates were treated with aqueous test solutions prepared from 10′000 ppm DMSO stock solutions by spraying. After drying, the plates were infested with L2 larvae (6 to 10 per well). The samples were assessed for mortality and growth inhibition in comparison to untreated samples 4 days after infestation.

In a further data set the test system is Spodoptera littoralis. The experiment in a line: Activity against Spodoptera littoralis (Egyptian cotton leaf worm), cotton leaf discs. Conditions: foliar, 72 h, application rate 200 ppm, L1 larvae, 3 days after infestation, read-out: control (mortality, anti-feeding effect or growth inhibition). Here is the method:
Example B1: Activity Against Spodoptera littoralis (Egyptian Cotton Leaf Worm)
Cotton leaf discs were placed onto agar in 24-well microtiter plates and sprayed with aqueous test solutions prepared from 10′000 ppm DMSO stock solutions. After drying the leaf discs were infested with five L1 larvae. The samples were assessed for mortality, anti-feeding effect, and growth inhibition in comparison to untreated samples 3 days after infestation. Control of Spodoptera littoralis by a test sample is given when at least one of the categories mortality, anti-feedant effect, and growth inhibition is higher than the untreated sample.

Another data set deals with Bemisia tabaci. Description: Activity against Bemisia tabaci (cotton white fly), cotton leaf discs. Conditions: for mortality at 200 ppm / mortality at 12.5 ppm: foliar; for mortality at 200 ppm: 144 h, application rate 200 ppm, adult white flies, 6 days after incubation. Here is the method: Example B6: Activity Against Bemisia tabaci (Cotton White Fly)
Cotton leaf discs were placed on agar in 24-well microtiter plates and sprayed with aqueous test solutions prepared from 10′000 ppm DMSO stock solutions. After drying the leaf discs were infested with adult white flies. The samples were checked for mortality 6 days after incubation.

For data set [2], the system named is Myzus persicae. The experiment in a line: Activity against Myzus persicae (green peach aphid), feeding/contact activity, sunflower leaf discs. Conditions: Myzus persicae, foliar; for mortality at 200 ppm: 144 h, application rate 200 ppm, feeding/contact, 6 days after infestation. Here is the method: Example B4: Activity Against Myzus persicae (Green Peach Aphid) Feeding/Contact Activity
Sunflower leaf discs were placed on agar in a 24-well microtiter plate and sprayed with aqueous test solutions prepared from 10′000 ppm DMSO stock solutions. After drying, the leaf discs were infested with an aphid population of mixed ages. The samples were assessed for mortality 6 days after infestation.

The mark [3] stands for this setting: 144 h, test rate 24 ppm, systemic, 6 days after placing seedlings in test solutions.
Where [4] appears, read: Myzus persicae (systemic), concentration 24 ppm.

Each structure is given as a SMILES string. A value given as a limit tells only on which side of the number the result lay.

By mortality is commonly meant the percentage killed. Regarding `CCS(=N)(=O)c1cc(OC(C)(C)C#N)cnc1-c1cn2ccc(C(F)(F)F)cc2n1` (single isomer, unassigned) [Compound P3-B, 2-[[5-(ethylsulfonimidoyl)-6-[7-(trifluoromethyl)imidazo[1,2-a]pyridin-2-yl]-3-pyridyl]oxy]-2-methyl-propanenitrile], the percent effect (mortality or growth inhibition) at 200 ppm in the data set on Plutella xylostella was no less than 80%. The same compound returned a mortality at 24 ppm with Myzus persicae [1] (setting [3]) of no less than 80%.

Consider `CCS(=N)(=O)c1cc(C(C)(C)C#N)cnc1-c1nc2cc(C(F)(F)F)ncc2n1C` (single isomer, unassigned) [Compound P4-B, 2-[5-(ethylsulfonimidoyl)-6-[3-methyl-6-(trifluoromethyl)imidazo[4,5-c]pyridin-2-yl]-3-pyridyl]-2-methyl-propanenitrile], for which the percent effect (mortality or growth inhibition) at 200 ppm with Plutella xylostella and with Diabrotica balteata was no less than 80% throughout.

Turning to `CCS(=N)(=O)c1cc(OC(C)(C)C#N)c(C)nc1-c1nc2cc(C(F)(F)F)cnc2n1C` (single isomer, unassigned) [Compound P5-A, 2-[[5-(ethylsulfonimidoyl)-2-methyl-6-[3-methyl-6-(trifluoromethyl)imidazo[4,5-b]pyridin-2-yl]-3-pyridyl]oxy]-2-methyl-propanenitrile], in the data set with Spodoptera littoralis, the percent control (mortality, anti-feedant effect or growth inhibition) at 200 ppm is no less than 80%. In the data set on Diabrotica balteata, the percent effect (mortality or growth inhibition) at 200 ppm is no less than 80%. In the data set with Diabrotica balteata (concentration 3.125 ppm), this compound had a mortality at 3.125 ppm of 80%. For the same compound, the mortality at 200 ppm in the data set with Bemisia tabaci and in the data set with Myzus persicae [2] was no less than 80% each time. Also, the mortality at 24 ppm in the data set on Myzus persicae [1] (setting [3]) was no less than 80%; in the data set on Myzus persicae [1] (setting [4]) it was 100%.

For `CCS(=N)(=O)c1cc(C2(C#N)CC2)ccc1-c1nc2cc(C(F)(F)F)cnc2n1C` (single isomer, unassigned) [Compound P6-B, 1-[3-(ethylsulfonimidoyl)-4-[3-methyl-6-(trifluoromethyl)imidazo[4,5-b]pyridin-2-yl]phenyl]cyclopropanecarbonitrile], the percent effect (mortality or growth inhibition) at 200 ppm in the data set on Plutella xylostella was no less than 80%. In the data set on Spodoptera littoralis, the percent control (mortality, anti-feedant effect or growth inhibition) at 200 ppm was no less than 80%. The “Mortality (%)” value in the data set with Diabrotica balteata was 80%; with Myzus persicae [1] (Myzus persicae (systemic), concentration 6 ppm) it was 100%.

Turning to `CCS(=N)(=O)c1cc(C2(C#N)CC2)cnc1-c1nc2cc(C(F)(F)F)ncc2n1C` (single isomer, unassigned) [Compound P10-A, 1-[5-(ethylsulfonimidoyl)-6-[3-methyl-6-(trifluoromethyl)imidazo[4,5-c]pyridin-2-yl]-3-pyridyl]cyclopropanecarbonitrile], the percent effect (mortality or growth inhibition) at 200 ppm in the data set on Plutella xylostella and in the data set on Diabrotica balteata was no less than 80% in each case. Besides, the mortality at 200 ppm in the data set on Bemisia tabaci and in the data set on Myzus persicae [2] was no less than 80% in each case. The same compound gave a mortality at 12.5 ppm with Bemisia tabaci (concentration 12.5 ppm) of 80%. The mortality at 24 ppm in the data set on Myzus persicae [1] (setting [3]) was no less than 80%. Also, in the data set with Myzus persicae [2] (Myzus persicae (feeding/contact), concentration 0.781 ppm), the mortality at 0.781 ppm came out at 80%.

As to `CCS(=N)(=O)c1cc(C(C)(C)C#N)cnc1-c1nc2cc(C(F)(F)F)cnc2n1C` (single isomer, unassigned) [Compound P12-A, 2-[5-(ethylsulfonimidoyl)-6-[3-methyl-6-(trifluoromethyl)imidazo[4,5-b]pyridin-2-yl]-3-pyridyl]-2-methyl-propanenitrile], the percent effect (mortality or growth inhibition) at 200 ppm in the data set with Plutella xylostella and in the data set on Diabrotica balteata was no less than 80% each time. Moreover, the mortality at 200 ppm with Bemisia tabaci and with Myzus persicae [2] was no less than 80% throughout. The compound also came in with a mortality at 24 ppm in the data set on Myzus persicae [1] (setting [3]) of no less than 80%.

On to `CCS(=N)(=O)c1cc(OC(C)(C)C#N)cnc1-c1nc2cc(C(F)(F)F)ncc2n1C` (single isomer, unassigned) [Compound P13-A, 2-[[5-(ethylsulfonimidoyl)-6-[3-methyl-6-(trifluoromethyl)imidazo[4,5-c]pyridin-2-yl]-3-pyridyl]oxy]-2-methyl-propanenitrile], for which the percent effect (mortality or growth inhibition) at 200 ppm in the data set on Plutella xylostella and with Diabrotica balteata was no less than 80% in each case. Further, in the data set with Diabrotica balteata, the mortality at 50 ppm stood at 80%. For the same compound, the mortality at 200 ppm with Bemisia tabaci and in the data set with Myzus persicae [2] was no less than 80% throughout. For the same compound, in the data set on Myzus persicae [1] (setting [3]), the mortality at 24 ppm is no less than 80%. For the same compound, the mortality at 12.5 ppm with Myzus persicae [2] (Myzus persicae (feeding/contact), concentration 12.5 ppm) was 80%.

With `CCS(=N)(=O)c1cc(OC(C)(C)C#N)cnc1-c1nc2cc(C(F)(F)F)nnc2n1C` (single isomer, unassigned) [Compound P15-A, 2-[[5-(ethylsulfonimidoyl)-6-[7-methyl-3-(trifluoromethyl)imidazo[4,5-c]pyridazin-6-yl]-3-pyridyl]oxy]-2-methyl-propanenitrile], the percent effect (mortality or growth inhibition) at 200 ppm in the data set with Plutella xylostella and in the data set on Diabrotica balteata was no less than 80% each time. Also, in the data set with Spodoptera littoralis, the percent control (mortality, anti-feedant effect or growth inhibition) at 200 ppm was no less than 80%. The compound further yielded a mortality at 12.5 ppm with Diabrotica balteata (concentration 12.5 ppm) of 80%. The mortality at 200 ppm with Bemisia tabaci and in the data set on Myzus persicae [2] was no less than 80% in each case. This compound returned a mortality at 24 ppm in the data set with Myzus persicae [1] (setting [3]) of no less than 80%.

`CCS(=N)(=O)c1cc(C2(C#N)CC2)cnc1-c1nc2cc(C(F)(F)F)cnc2n1C` (single isomer, unassigned) [Compound P16-A, 1-[5-(ethylsulfonimidoyl)-6-[3-methyl-6-(trifluoromethyl)imidazo[4,5-b]pyridin-2-yl]-3-pyridyl]cyclopropanecarbonitrile]: the percent effect (mortality or growth inhibition) at 200 ppm in the data set on Plutella xylostella and in the data set with Diabrotica balteata was no less than 80% each time. The mortality at 200 ppm in the data set on Bemisia tabaci and with Myzus persicae [2] was no less than 80% in each case. Moreover, the mortality at 12.5 ppm in the data set with Bemisia tabaci (concentration 12.5 ppm) was 100%. In the data set with Myzus persicae [1] (setting [3]), this compound displayed a mortality at 24 ppm of no less than 80%. This compound had a mortality at 3.125 ppm with Myzus persicae [2] (Myzus persicae (feeding/contact), concentration 3.125 ppm) of 100%.

Regarding `CCS(=N)(=O)c1cc(OC(C)(C)C#N)c(C)nc1-c1nc2cc(C(F)(F)F)ncc2n1C` (single isomer, unassigned) [Compound P17-A, 2-[[5-(ethylsulfonimidoyl)-2-methyl-6-[3-methyl-6-(trifluoromethyl)imidazo[4,5-c]pyridin-2-yl]-3-pyridyl]oxy]-2-methyl-propanenitrile], the percent effect (mortality or growth inhibition) at 200 ppm with Plutella xylostella and with Diabrotica balteata was no less than 80% each time. The mortality at 200 ppm in the data set on Bemisia tabaci and in the data set with Myzus persicae [2] was no less than 80% throughout. The compound further showed a mortality at 24 ppm in the data set with Myzus persicae [1] (setting [3]) of no less than 80%.

`CCS(=N)(=O)c1cc(C2(C#N)CC2)ccc1-c1nc2cc(C(F)(F)F)ncc2n1C` (single isomer, unassigned) [Compound P18-A, 1-[3-(ethylsulfonimidoyl)-4-[3-methyl-6-(trifluoromethyl)imidazo[4,5-c]pyridin-2-yl]phenyl]cyclopropanecarbonitrile]: the percent effect (mortality or growth inhibition) at 200 ppm with Plutella xylostella and in the data set with Diabrotica balteata was no less than 80% in each case. Besides, the “Mortality (%)” value in the data set on Diabrotica balteata and in the data set with Bemisia tabaci (concentration 12.5 ppm) was 100% each time. Besides, the mortality at 200 ppm with Bemisia tabaci and in the data set on Myzus persicae [2] was no less than 80% in each case. This compound also had a mortality at 24 ppm in the data set with Myzus persicae [1] (setting [3]) of no less than 80%.

On to `CC[S@@](=N)(=O)c1cc(OC(C)(C)C#N)cnc1-c1nc2cc(C(F)(F)F)cnc2n1C` [Compound P9-A, (R)-2-[[5-(ethylsulfonimidoyl)-6-[3-methyl-6-(trifluoromethyl)imidazo[4,5-b]pyridin-2-yl]-3-pyridyl]oxy]-2-methyl-propanenitrile], for which the percent effect (mortality or growth inhibition) at 200 ppm in the data set on Plutella xylostella and in the data set with Diabrotica balteata was no less than 80% in each case. Further, the percent control (mortality, anti-feedant effect or growth inhibition) at 200 ppm in the data set with Spodoptera littoralis was no less than 80%. The mortality at 50 ppm with Diabrotica balteata was determined as 80%. Moreover, the mortality at 200 ppm with Bemisia tabaci and in the data set with Myzus persicae [2] was no less than 80% throughout. The mortality at 24 ppm is no less than 80% in the data set on Myzus persicae [1] (setting [3]) and 100% in the data set with Myzus persicae [1] (setting [4]).

(Values after patent publication US20250081967A1, “PESTICIDALLY ACTIVE HETEROCYCLIC DERIVATIVES WITH SULFOXIMINE CONTAINING SUBSTITUENTS” (SYNGENTA CROP PROTECTION AG, priority 2021, published 2025).)
